In paper PMC6930567, “NMR Study of the Secondary Structure and Biopharmaceutical Formulation of an Active Branched Antimicrobial Peptide” (Molecules, 2019):
pEC50: −log10 of the molar value. Counter-ions that a name gives are not always drawn. Like-named read-outs stand apart in the source and are kept apart here. Positions of bridges follow the written chain, without caps; N, C: chain ends. Non-standard residues stand in square brackets, D forms with d. Residues, ends and D or L forms follow the SMILES beside them. Chains are numbered I, II in the order given. βAla = NCCC(=O)O

Tests used:
[1] = system: 16HBE14o- human bronchial epithelial cells; format: cell-based; details: 48 h
Description: (§1) T24 human epithelial bladder cells, 16HBE14o- human bronchial epithelial cells and RAW264.7 mouse macrophages were plated at a density of 2.5 × 10^4 cells/well in 96-well microplates. The 16HBE14o- cells were previously incubated with coating solution (88% LHC basal medium, 10% bovine serum albumin, 30 µg/mL bovine collagen type I and 1% human fibronectin). Different concentrations of SET-M33 TFA, acetate and chloride were added 24 h after plating. Cells were grown for 48 h at 37 °C. Their viability was assessed by 3-(4,5-dimethylthiazol-2-yl)2,5-diphenyltetrazolium bromide (MTT) assay. EC50 values were obtained by dose-response variable slope analysis using GraphPad Prism 5.03 software (San Diego, CA, USA).

[2] = system: RAW264.7 mouse macrophages; format: cell-based; details: 48 h
Description: as §1

[3] = system: T24 human bladder epithelial cells; format: cell-based; details: 48 h
Description: as §1

CD1 mice [4] = details: cited from earlier work; for signs of acute toxicity in vivo: scored not-observable, mild, severe
Description: (§2) Table 4 Signs of acute toxicity in vivo of the three SET-M33 salts. | column: 20 mg/kg; 25 mg/kg || Acute toxicity of SET-M33 chloride was tested in mice and compared with the acetate and TFA counter-ions. Ten animals per group (five males and five females) were injected with two doses of SET-M33 chloride, 20 and 30 mg/kg, known to be below the LD50 [7]. Signs of toxicity were scored as not-observable, mild and severe. SET-M33 chloride and SET-M33 acetate scored 100% not-observable (Table 4), unlike the TFA that scored 100% toxicity at 25 mg/kg, described as 33% severe and 66% mild.

E. coli TG-1 = format: cell-based; details: TG-1, 24 h
Description: (§3) Antimicrobial susceptibility was assessed by determining the minimum inhibitory concentrations (MICs) of SET-[…] acetate and SET-[…] chloride against E. coli TG-1 and P. aeruginosa PAO-1, using the broth microdilution technique according to 2017 EUCAST guidelines. The MIC assay measures visible inhibition of bacterial growth after 24 h exposure of bacteria to antibiotic in Mueller-Hinton (MH) broth. Assays were performed in triplicate using a bacterial inoculum of 5 × 10^4 CFU/well in a final volume of 100 μL. The twofold antibiotic concentration ranged from 0.1 μM to 12 μM for both peptides. MICs were read after 24 h of incubation at 35 °C.

P. aeruginosa PAO-1 = format: cell-based; details: PAO-1, 24 h
Description: as §3

CD1 mice [5] = test: Acute toxicity in mice; format: in vivo, mouse; details: for signs of acute toxicity in vivo: 10/group, monitored 96 h, scored not-observable, mild, severe; for share of animals scored not-observable for signs of toxicity: i.v. single dose, chloride 20 and 30 mg/kg, acetate 25 and 30 mg/kg
Description: as §2, with “Acute” for “Table 4 Signs of acute toxicity in vivo of the three SET-M33 salts. | column: 20 mg/kg; 25 mg/kg || Acute”
All animal experiments were conducted under the protocol approved by the Italian Ministry of Health at the Toscana Life Sciences Foundation animal facility in Siena, Italy (authorization n. 34/2016PR). Animals (10 CD1 mice/group, 20–22 g) were injected i.v. with SET-M33 acetate (group 1 and group 2) and SET-M33 chloride (group 3 and group 4), in a single dose. The doses were: group 1, 25 mg/kg SET-M33 acetate; group 2, 30 mg/kg SET-M33 acetate; group 3, 20 mg/kg SET-M33 chloride and group 4, 30 mg/kg SET-M33 chloride. Animals were monitored for 96 h. Signs of toxicity were checked four times a day by visual inspection and were scored as not-observable, mild and severe. Mice were weighed every day from arrival to the last day of the experiment. Animals with clear signs of distress, such as reduced mobility and weight loss greater than 20%, were anesthetized and sacrificed with carbon dioxide or by cervical dislocation.

| Structure (SMILES) | pEC50 [1] | pEC50 [2] | pEC50 [3] | signs of acute toxicity in vivo (CD1 mice [4]; 25 mg/kg) | share of animals with mild signs of toxicity (CD1 mice [4]; 25 mg/kg) [%] | share of animals with severe signs of toxicity (CD1 mice [4]; 25 mg/kg) [%] | toxicity score (share of animals with signs of toxicity) (CD1 mice [4]; 25 mg/kg) [%] | MIC (E. coli TG-1) [µM] | MIC (P. aeruginosa PAO-1) [µM] | signs of acute toxicity in vivo (CD1 mice [5]; 25 mg/kg i.v. single dose) | signs of acute toxicity in vivo (CD1 mice [5]; 30 mg/kg i.v. single dose) | share of animals scored not-observable for signs of toxicity (CD1 mice [5]) [%] | signs of acute toxicity in vivo (CD1 mice [4]; 20 mg/kg) | signs of acute toxicity in vivo (CD1 mice [5]; 20 mg/kg i.v. single dose) |
| --- | --- | --- | --- | --- | --- | --- | --- | --- | --- | --- | --- | --- | --- | --- |
| CC[C@H](C)[C@H](NC(=O)[C@H](CCCCN)NC(=O)[C@@H](N)CCCCN)C(=O)N[C@@H](CCCNC(=N)N)C(=O)N[C@H](C(=O)N[C@@H](CCCNC(=N)N)C(=O)N[C@@H](CC(C)C)C(=O)N[C@@H](CO)C(=O)N[C@@H](C)C(=O)NCCCC[C@H](NC(=O)[C@H](C)NC(=O)[C@H](CO)NC(=O)[C@H](CC(C)C)NC(=O)[C@H](CCCNC(=N)N)NC(=O)[C@@H](NC(=O)[C@H](CCCNC(=N)N)NC(=O)[C@@H](NC(=O)[C@H](CCCCN)NC(=O)[C@@H](N)CCCCN)[C@@H](C)CC)C(C)C)C(=O)NCCCC[C@H](NC(=O)[C@H](CCCCNC(=O)[C@H](C)NC(=O)[C@H](CO)NC(=O)[C@H](CC(C)C)NC(=O)[C@H](CCCNC(=N)N)NC(=O)[C@@H](NC(=O)[C@H](CCCNC(=N)N)NC(=O)[C@@H](NC(=O)[C@H](CCCCN)NC(=O)[C@@H](N)CCCCN)[C@@H](C)CC)C(C)C)NC(=O)[C@H](C)NC(=O)[C@H](CO)NC(=O)[C@H](CC(C)C)NC(=O)[C@H](CCCNC(=N)N)NC(=O)[C@@H](NC(=O)[C@H](CCCNC(=N)N)NC(=O)[C@@H](NC(=O)[C@H](CCCCN)NC(=O)[C@@H](N)CCCCN)[C@@H](C)CC)C(C)C)C(=O)NCCC(=O)O)C(C)C [SET-M33 TFA] (I: H-KKIRVRLSAKK[βAla]-OH / II: H-KKIRVRLSAK / III: H-KKIRVRLSA / IV: H-KKIRVRLSA; amide I:10-IV:C, I:11-II:C, II:10-III:C) | 4.96 | 5.41 | 4.87 | mild to severe | 66 | 33 | 100 | – | – | – | – | – | – | – |
| CC[C@H](C)[C@H](NC(=O)[C@H](CCCCN)NC(=O)[C@@H](N)CCCCN)C(=O)N[C@@H](CCCNC(=N)N)C(=O)N[C@H](C(=O)N[C@@H](CCCNC(=N)N)C(=O)N[C@@H](CC(C)C)C(=O)N[C@@H](CO)C(=O)N[C@@H](C)C(=O)NCCCC[C@H](NC(=O)[C@H](C)NC(=O)[C@H](CO)NC(=O)[C@H](CC(C)C)NC(=O)[C@H](CCCNC(=N)N)NC(=O)[C@@H](NC(=O)[C@H](CCCNC(=N)N)NC(=O)[C@@H](NC(=O)[C@H](CCCCN)NC(=O)[C@@H](N)CCCCN)[C@@H](C)CC)C(C)C)C(=O)NCCCC[C@H](NC(=O)[C@H](CCCCNC(=O)[C@H](C)NC(=O)[C@H](CO)NC(=O)[C@H](CC(C)C)NC(=O)[C@H](CCCNC(=N)N)NC(=O)[C@@H](NC(=O)[C@H](CCCNC(=N)N)NC(=O)[C@@H](NC(=O)[C@H](CCCCN)NC(=O)[C@@H](N)CCCCN)[C@@H](C)CC)C(C)C)NC(=O)[C@H](C)NC(=O)[C@H](CO)NC(=O)[C@H](CC(C)C)NC(=O)[C@H](CCCNC(=N)N)NC(=O)[C@@H](NC(=O)[C@H](CCCNC(=N)N)NC(=O)[C@@H](NC(=O)[C@H](CCCCN)NC(=O)[C@@H](N)CCCCN)[C@@H](C)CC)C(C)C)C(=O)NCCC(=O)O)C(C)C [SET-M33 acetate] (I: H-KKIRVRLSAKK[βAla]-OH / II: H-KKIRVRLSAK / III: H-KKIRVRLSA / IV: H-KKIRVRLSA; amide I:10-IV:C, I:11-II:C, II:10-III:C) | 5.02 | 5.29 | 4.91 | – | – | – | – | 1.5 | 3 | not-observable | not-observable | 100 | not-observable [6] | – |
| CC[C@H](C)[C@H](NC(=O)[C@H](CCCCN)NC(=O)[C@@H](N)CCCCN)C(=O)N[C@@H](CCCNC(=N)N)C(=O)N[C@H](C(=O)N[C@@H](CCCNC(=N)N)C(=O)N[C@@H](CC(C)C)C(=O)N[C@@H](CO)C(=O)N[C@@H](C)C(=O)NCCCC[C@H](NC(=O)[C@H](C)NC(=O)[C@H](CO)NC(=O)[C@H](CC(C)C)NC(=O)[C@H](CCCNC(=N)N)NC(=O)[C@@H](NC(=O)[C@H](CCCNC(=N)N)NC(=O)[C@@H](NC(=O)[C@H](CCCCN)NC(=O)[C@@H](N)CCCCN)[C@@H](C)CC)C(C)C)C(=O)NCCCC[C@H](NC(=O)[C@H](CCCCNC(=O)[C@H](C)NC(=O)[C@H](CO)NC(=O)[C@H](CC(C)C)NC(=O)[C@H](CCCNC(=N)N)NC(=O)[C@@H](NC(=O)[C@H](CCCNC(=N)N)NC(=O)[C@@H](NC(=O)[C@H](CCCCN)NC(=O)[C@@H](N)CCCCN)[C@@H](C)CC)C(C)C)NC(=O)[C@H](C)NC(=O)[C@H](CO)NC(=O)[C@H](CC(C)C)NC(=O)[C@H](CCCNC(=N)N)NC(=O)[C@@H](NC(=O)[C@H](CCCNC(=N)N)NC(=O)[C@@H](NC(=O)[C@H](CCCCN)NC(=O)[C@@H](N)CCCCN)[C@@H](C)CC)C(C)C)C(=O)NCCC(=O)O)C(C)C [SET-M33 chloride] (I: H-KKIRVRLSAKK[βAla]-OH / II: H-KKIRVRLSAK / III: H-KKIRVRLSA / IV: H-KKIRVRLSA; amide I:10-IV:C, I:11-II:C, II:10-III:C) | 4.99 | 5.21 | 4.65 | – | – | – | – | 1.5 | 1.5 | – | not-observable | 100 | – | not-observable |
